Active and inactive are the calls of the source. The rule behind the calls is not given here.
Experiments:
Assay type in all cases: functional, organism-based
[1] = organism: Homo sapiens; assay: Effect on FT4 level in diabetic obese pateint by ELISA relative to untreated obese insulin-resistant control
[2] = organism: Homo sapiens; assay: Effect on FT4 level in diabetic non-obese pateint by ELISA relative to untreated obese insulin-resistant control
[3] = organism: Homo sapiens; assay: Effect on FT4 level in diabetic obese pateint by ELISA relative to untreated healthy control
[4] = organism: Homo sapiens; assay: Effect on FT4 level in diabetic non-obese pateint by ELISA relative to untreated healthy control
[5] = organism: Homo sapiens; assay: Effect on TSH level in diabetic obese pateint by ELISA relative to untreated healthy control
[6] = organism: Homo sapiens; assay: Decrease in TSH level in diabetic non-obese pateint by ELISA relative to untreated obese insulin-resistant control
[7] = organism: Homo sapiens; assay: Effect on TSH level in diabetic non-obese pateint by ELISA relative to untreated healthy control

For CN(C)C(=N)NC(=N)N, the Activity [1] was “inactive”, the Activity [2] was “inactive” and the Activity [3] was “inactive”. The Activity [4] was “inactive”, the Activity [5] was “inactive” and the Activity [6] was “Active”. The Activity [7] was “inactive”.
